Measured values published in patent publication US10738030B2, “Modulators of cystic fibrosis transmembrane conductance regulator” (Vertex Pharmaceuticals Incorporated, priority 2016, dated 2020).

Molecular target: T1, F508del (Homo sapiens, UniProt P13569, DEL508-508)
T1 construct: expressed in transfected cells
Assay: Membrane potential optical assay (FRET voltage-sensor dyes), identification of correction compounds
Assay type: cell-based
Conditions: NIH3T3 cells stably expressing F508del, procedures described above; for Emax: maximum efficacy, read-out: Max Efficacy; for EC50: modulation of CFTR activity
Outline: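 NIH3T3 mouse fibroblasts stably expressing F508del incubated 16 hrs at 37° C. in serum-free medium with or without compound. After dye loading (CC2-DMPE/DiSBAC2(3)), 10 μM forskolin plus 20 μM genistein added in Cl⁻-free medium; depolarization from Cl⁻ efflux read by FRET on VIPR II.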

T1 sequence (P13569 with tags, fused parts or gaps DEL508-508): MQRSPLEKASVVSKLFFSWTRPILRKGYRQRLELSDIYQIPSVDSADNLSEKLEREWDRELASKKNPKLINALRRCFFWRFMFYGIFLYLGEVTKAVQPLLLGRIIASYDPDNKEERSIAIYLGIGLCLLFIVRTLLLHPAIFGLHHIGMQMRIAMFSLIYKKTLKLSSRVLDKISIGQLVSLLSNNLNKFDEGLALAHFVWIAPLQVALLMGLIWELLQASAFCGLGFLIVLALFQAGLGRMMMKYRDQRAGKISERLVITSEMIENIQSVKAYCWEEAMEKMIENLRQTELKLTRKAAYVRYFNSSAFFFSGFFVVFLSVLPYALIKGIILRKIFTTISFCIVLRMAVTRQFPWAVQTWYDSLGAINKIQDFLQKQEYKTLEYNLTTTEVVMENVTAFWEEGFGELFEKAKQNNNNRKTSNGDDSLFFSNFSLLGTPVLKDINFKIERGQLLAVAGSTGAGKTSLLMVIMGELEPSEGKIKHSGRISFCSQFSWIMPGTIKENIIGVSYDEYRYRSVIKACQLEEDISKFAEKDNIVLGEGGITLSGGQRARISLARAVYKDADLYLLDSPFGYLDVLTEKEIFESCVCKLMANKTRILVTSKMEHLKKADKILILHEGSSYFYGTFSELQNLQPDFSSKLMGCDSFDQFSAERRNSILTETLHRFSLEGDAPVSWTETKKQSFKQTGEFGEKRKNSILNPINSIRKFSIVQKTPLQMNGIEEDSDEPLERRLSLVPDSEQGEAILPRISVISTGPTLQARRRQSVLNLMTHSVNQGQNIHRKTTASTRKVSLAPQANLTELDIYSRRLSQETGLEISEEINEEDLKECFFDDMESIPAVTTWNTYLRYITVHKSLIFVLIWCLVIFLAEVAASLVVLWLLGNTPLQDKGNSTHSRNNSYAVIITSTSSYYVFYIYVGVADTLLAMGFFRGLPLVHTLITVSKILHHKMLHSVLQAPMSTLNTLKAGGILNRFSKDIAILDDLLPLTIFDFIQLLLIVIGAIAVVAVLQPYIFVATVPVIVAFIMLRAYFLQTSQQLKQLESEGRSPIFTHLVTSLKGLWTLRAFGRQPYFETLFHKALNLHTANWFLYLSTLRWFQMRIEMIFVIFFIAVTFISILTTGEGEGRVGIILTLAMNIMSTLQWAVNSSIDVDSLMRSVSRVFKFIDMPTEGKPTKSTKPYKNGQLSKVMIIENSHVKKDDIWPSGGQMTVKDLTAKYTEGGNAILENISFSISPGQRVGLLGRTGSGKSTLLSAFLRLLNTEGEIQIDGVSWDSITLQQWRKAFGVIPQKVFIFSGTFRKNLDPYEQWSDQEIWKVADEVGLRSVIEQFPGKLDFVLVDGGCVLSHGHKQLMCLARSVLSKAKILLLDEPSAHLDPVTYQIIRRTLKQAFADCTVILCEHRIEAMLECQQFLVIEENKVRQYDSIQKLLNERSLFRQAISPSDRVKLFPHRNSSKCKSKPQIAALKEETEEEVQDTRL

Row | SMILES | Emax [%] | EC50 [µM]
1 | CCN(C)c1nc(-c2cc(F)cc(OCC(C)C)c2)ccc1C(=O)NS(=O)(=O)c1cccc(N)n1 [Compound 67, N-[(6-amino-2-pyridyl)sulfonyl]-2-[ethyl(methyl)amino]-6-(3-fluoro-5-isobutoxy-phenyl)pyridine-3-carboxamide] | > 80 | < 3
2 | CC(C)COc1cc(F)cc(-c2ccc(C(=O)NS(=O)(=O)c3cccc(N)n3)c(OC(C(C)C)C(C)(C)C)n2)c1 (centres unmarked) [Compound 68, N-[(6-amino-2-pyridyl)sulfonyl]-6-(3-fluoro-5-isobutoxy-phenyl)-2-(1-isopropyl-2,2-dimethyl-propoxy)pyridine-3-carboxamide] | 30 to 80 | < 3
3 | CCC(CC)N(C)c1nc(-c2cc(F)cc(OCC(C)C)c2)ccc1C(=O)NS(=O)(=O)c1cccc(N)n1 [Compound 69, N-[(6-amino-2-pyridyl)sulfonyl]-2-[1-ethylpropyl(methyl)amino]-6-(3-fluoro-5-isobutoxy-phenyl)pyridine-3-carboxamide] | > 80 | < 3
4 | CC(C)Oc1ccc(-c2ccc(C(=O)NS(=O)(=O)c3cccc(N)n3)c(N(C)C(C)C)n2)cn1 [Compound 70, N-[(6-amino-2-pyridyl)sulfonyl]-6-(6-isopropoxy-3-pyridyl)-2-[isopropyl(methyl)amino]pyridine-3-carboxamide] | 30 to 80 | 3 to 10
5 | CCOCC(C)Oc1nc(-c2cc(F)cc(OCC(C)C)c2)ccc1C(=O)NS(=O)(=O)c1cccc(N)n1 (centres unmarked) [Compound 71, N-[(6-amino-2-pyridyl)sulfonyl]-2-(2-ethoxy-1-methyl-ethoxy)-6-(3-fluoro-5-isobutoxy-phenyl)pyridine-3-carboxamide] | 30 to 80 | < 3
6 | CC(C)COc1cc(F)cc(-c2ccc(C(=O)NS(=O)(=O)c3ccn[nH]3)c(NCC(C)(C)C)n2)c1 [Compound 72, 2-(2,2-dimethylpropylamino)-6-(3-fluoro-5-isobutoxy-phenyl)-N-(1H-pyrazol-5-ylsulfonyl)pyridine-3-carboxamide] | 30 to 80 | 3 to 10
7 | CC(C)COc1cc(F)cc(-c2ccc(C(=O)NS(=O)(=O)c3cccc(N)n3)c(OC(C)C(F)(F)F)n2)c1 (centres unmarked) [Compound 73, N-[(6-amino-2-pyridyl)sulfonyl]-6-(3-fluoro-5-isobutoxy-phenyl)-2-(2,2,2-trifluoro-1-methyl-ethoxy)pyridine-3-carboxamide] | 30 to 80 | < 3
8 | CCN(c1nc(-c2cc(F)cc(OCC(C)C)c2)ccc1C(=O)NS(=O)(=O)c1cccc(N)n1)C(C)C [Compound 74, N-[(6-amino-2-pyridyl)sulfonyl]-2-[ethyl(isopropyl)amino]-6-(3-fluoro-5-isobutoxy-phenyl)pyridine-3-carboxamide] | > 80 | < 3
9 | CC(C)COc1cc(F)cc(-c2ccc(C(=O)NS(=O)(=O)c3cccc(N)n3)c(N(C)[C@H](C)C(F)(F)F)n2)c1 [Compound 75, N-[(6-amino-2-pyridyl)sulfonyl]-6-(3-fluoro-5-isobutoxy-phenyl)-2-[methyl-[(1R)-2,2,2-trifluoro-1-methyl-ethyl]amino]pyridine-3-carboxamide] | > 80 | < 3
10 | CC(C)COc1cc(F)cc(-c2ccc(C(=O)NS(=O)(=O)c3cccc(N)n3)c(C(C)C(C)C)n2)c1 (centres unmarked) [Compound 76, N-[(6-amino-2-pyridyl)sulfonyl]-2-(1,2-dimethylpropyl)-6-(3-fluoro-5-isobutoxy-phenyl)pyridine-3-carboxamide] | 30 to 80 | < 3
11 | CCC(C)(C)CCOc1nc(-c2cc(F)cc(OCC(C)C)c2)ccc1C(=O)NS(=O)(=O)c1cccc(N)n1 [Compound 77, N-[(6-amino-2-pyridyl)sulfonyl]-2-(3,3-dimethylpentoxy)-6-(3-fluoro-5-isobutoxy-phenyl)pyridine-3-carboxamide] | 30 to 80 | < 3
12 | CC(C)COc1cc(F)cc(-c2ccc(C(=O)NS(=O)(=O)c3ccn[nH]3)c(N(C)C(C)C)n2)c1 [Compound 79, 6-(3-fluoro-5-isobutoxy-phenyl)-2-[isopropyl(methyl)amino]-N-(1H-pyrazol-5-ylsulfonyl)pyridine-3-carboxamide] | > 80 | < 3
13 | CC(C)COc1cc(F)cc(-c2ccc(C(=O)NS(=O)(=O)c3cccc(N)n3)c(NCCC(C)(C)O)n2)c1 [Compound 80, N-[(6-amino-2-pyridyl)sulfonyl]-6-(3-fluoro-5-isobutoxy-phenyl)-2-[(3-hydroxy-3-methyl-butyl)amino]pyridine-3-carboxamide] | 30 to 80 | > 10
14 | CC(C)COc1cc(F)cc(-c2ccc(C(=O)NS(=O)(=O)c3cccc(N)n3)c(OCCC(F)(F)F)n2)c1 [Compound 81, N-[(6-amino-2-pyridyl)sulfonyl]-6-(3-fluoro-5-isobutoxy-phenyl)-2-(3,3,3-trifluoropropoxy)pyridine-3-carboxamide] | 30 to 80 | < 3
15 | CC(C)COc1cc(F)cc(-c2ccc(C(=O)NS(=O)(=O)c3cccc(N)n3)c(OCCCC(F)(F)F)n2)c1 [Compound 82, N-[(6-amino-2-pyridyl)sulfonyl]-6-(3-fluoro-5-isobutoxy-phenyl)-2-(4,4,4-trifluorobutoxy)pyridine-3-carboxamide] | 30 to 80 | < 3
16 | CC(C)COc1cc(F)cc(-c2ccc(C(=O)NS(=O)(=O)c3cccc(N)n3)c(OC/C=C/C(F)(F)F)n2)c1 [Compound 83, N-[(6-amino-2-pyridyl)sulfonyl]-6-(3-fluoro-5-isobutoxy-phenyl)-2-[(E)-4,4,4-trifluorobut-2-enoxy]pyridine-3-carboxamide] | 30 to 80 | < 3
17 | CCCCCNc1nc(-c2cc(F)cc(OCC(C)C)c2)ccc1C(=O)NS(=O)(=O)c1cccc(N)n1 [Compound 84, N-[(6-amino-2-pyridyl)sulfonyl]-6-(3-fluoro-5-isobutoxy-phenyl)-2-(pentylamino)pyridine-3-carboxamide] | > 80 | 3 to 10
18 | CCOc1cccc2c1CN(CC(C)(C)C)C2(C)C(=O)NS(=O)(=O)c1cccc(=O)[nH]1 (centres unmarked) [Compound 85, 2-(2,2-dimethylpropyl)-4-ethoxy-1-methyl-N-[(6-oxo-1H-pyridin-2-yl)sulfonyl]isoindoline-1-carboxamide] | ≤ 30 | > 10
19 | CC(C)COc1cc(F)cc(-c2ccc(C(=O)NS(=O)(=O)c3ccccc3)c(N(C)CCCC(=O)O)n2)c1 [Compound 86, 4-[[3-(benzenesulfonylcarbamoyl)-6-(3-fluoro-5-isobutoxy-phenyl)-2-pyridyl]-methyl-amino]butanoic Acid] | ≤ 30 | > 10
